Measurements: ChEMBL document CHEMBL4190178 (Medchemcomm, 2016)
The source made the active and inactive calls. The calls are words filed in the database; no cut-off is given here.

Experiments:
[1] = Ratio of AUClast in Sprague-Dawley rat prostate to serum at 10 mg/kg, po administered as single dose by LC-MS/MS analysis; assay type: ADME, organism-based; conditions: read-out: Ratio AUC
[2] = Tmax in Sprague-Dawley rat prostate at 10 mg/kg, po administered as single dose by LC-MS/MS analysis; assay type: ADME, organism-based, Prostate gland
[3] = Apparent volume of distribution in Sprague-Dawley rat serum at 10 mg/kg, po administered as single dose by LC-MS/MS analysis; assay type: ADME, organism-based
[4] = Apparent volume of distribution in Sprague-Dawley rat prostate at 10 mg/kg, po administered as single dose by LC-MS/MS analysis; assay type: ADME, organism-based, Prostate gland; conditions: in vivo
[5] = Cmax in Sprague-Dawley rat prostate at 10 mg/kg, po administered as single dose by LC-MS/MS analysis; assay type: ADME, organism-based, Prostate gland; design: dose 10 mg/kg, route oral
[6] = AUClast in Sprague-Dawley rat prostate at 10 mg/kg, po administered as single dose by LC-MS/MS analysis; assay type: ADME, organism-based, Prostate gland; conditions: in vivo
PC-3 = test: Antiproliferative activity against human PC3 cells assessed as decrease in cell viability after 24 hrs by MTT assay; assay type: functional, cell-based; conditions: PC-3, 24 h
Rattus norvegicus [7] = test: Anti-androgenic activity in citral-induced benign prostatic hyperplasia Sprague-Dawley rat model assessed as reduction in stromal component at 10 mg/kg, po qd co-administered with citral for 21 days starting post 8 days of citral alone treatment by hematoxyline and eosin staining based light microscopic analysis; assay type: functional, organism-based
[8] = biological target: T1, Alpha-1A adrenergic receptor (Homo sapiens) (UniProt P35348); test: Antagonist activity at human alpha1A adrenergic receptor expressed in Chem1 cells assessed as decrease in epinephrine-induced calcium mobilization by measuring relative fluorescence unit at 10 uM by fluoforte dye based fluorescence assay relative to epinephrine; assay type: functional, cell-based
T1 sequence (whole entry): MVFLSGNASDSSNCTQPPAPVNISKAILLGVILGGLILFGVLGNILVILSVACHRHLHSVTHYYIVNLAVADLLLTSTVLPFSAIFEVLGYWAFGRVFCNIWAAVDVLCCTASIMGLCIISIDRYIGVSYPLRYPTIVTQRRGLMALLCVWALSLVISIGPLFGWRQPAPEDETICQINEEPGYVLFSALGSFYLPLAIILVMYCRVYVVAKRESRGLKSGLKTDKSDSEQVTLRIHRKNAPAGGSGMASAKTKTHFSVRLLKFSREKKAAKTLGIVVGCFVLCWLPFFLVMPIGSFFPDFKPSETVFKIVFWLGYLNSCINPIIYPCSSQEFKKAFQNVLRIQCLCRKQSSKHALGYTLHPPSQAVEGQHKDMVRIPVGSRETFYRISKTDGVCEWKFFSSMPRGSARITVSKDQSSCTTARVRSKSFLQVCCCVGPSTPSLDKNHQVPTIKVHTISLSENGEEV

[9] = AUClast in Sprague-Dawley rat serum at 10 mg/kg, po administered as single dose by LC-MS/MS analysis; assay type: ADME, organism-based; design: dose 10 mg/kg, route oral, time 0 - last
DU-145 = test: Antiproliferative activity against human DU145 cells assessed as decrease in cell viability after 24 hrs by MTT assay; assay type: functional, cell-based; conditions: DU-145, 24 h
[10] = Tmax in Sprague-Dawley rat serum at 10 mg/kg, po administered as single dose by LC-MS/MS analysis; assay type: ADME, organism-based
[11] = Cmax in Sprague-Dawley rat hypothalamus at 10 mg/kg, po administered as single dose by LC-MS/MS analysis; assay type: ADME, organism-based; design: dose 10 mg/kg, route oral
[12] = Apparent clearance in Sprague-Dawley rat hypothalamus at 10 mg/kg, po administered as single dose by LC-MS/MS analysis; assay type: ADME, organism-based; conditions: in vivo
Rattus norvegicus [13] = test: Toxicity in benign prostatic hyperplasia Sprague-Dawley rat model assessed as effect on testis weight at 10 mg/kg, po qd co-administered with citral for 21 days starting post 8 days of citral alone treatment; assay type: organism-based; conditions: in vivo
[14] = Apparent clearance in Sprague-Dawley rat serum at 10 mg/kg, po administered as single dose by LC-MS/MS analysis; assay type: ADME, organism-based
[15] = Cmax in Sprague-Dawley rat serum at 10 mg/kg, po administered as single dose by LC-MS/MS analysis; assay type: ADME, organism-based; design: dose 10 mg/kg, route oral
Rattus norvegicus [16] = test: Anti-androgenic activity in citral-induced benign prostatic hyperplasia Sprague-Dawley rat model assessed as reduction in tissue differentiation into acinar compartments at 10 mg/kg, po qd co-administered with citral for 21 days starting post 8 days of citral alone treatment by hematoxyline and eosin staining based light microscopic analysis; assay type: functional, organism-based
LNCaP [17] = test: Cytotoxicity against human LNCAP cells assessed as reduction in cell viability after 24 hrs by MTT assay; assay type: functional, cell-based
[18] = Apparent volume of distribution in Sprague-Dawley rat hypothalamus at 10 mg/kg, po administered as single dose by LC-MS/MS analysis; assay type: ADME, organism-based; conditions: in vivo
LNCaP [19] = test: Antiproliferative activity against human LNCAP cells assessed as decrease in cell viability after 24 hrs by MTT assay; assay type: functional, cell-based
Rattus norvegicus [20] = test: Anti-androgenic activity in benign prostatic hyperplasia Sprague-Dawley rat model assessed as reduction in citral-induced prostate weight at 10 mg/kg, po qd co-administered with citral for 21 days starting post 8 days of citral alone treatment; assay type: functional; design: scale not given: the % may be the effect or the level left
[21] = biological target: T2, Androgen receptor (Homo sapiens) (UniProt P10275); test: Antagonist activity at human androgen receptor expressed in African green monkey COS7 cells at 7.5 uM after 24 hrs by ARE-dual luciferase reporter gene assay; assay type: cell-based
T2 sequence (whole entry): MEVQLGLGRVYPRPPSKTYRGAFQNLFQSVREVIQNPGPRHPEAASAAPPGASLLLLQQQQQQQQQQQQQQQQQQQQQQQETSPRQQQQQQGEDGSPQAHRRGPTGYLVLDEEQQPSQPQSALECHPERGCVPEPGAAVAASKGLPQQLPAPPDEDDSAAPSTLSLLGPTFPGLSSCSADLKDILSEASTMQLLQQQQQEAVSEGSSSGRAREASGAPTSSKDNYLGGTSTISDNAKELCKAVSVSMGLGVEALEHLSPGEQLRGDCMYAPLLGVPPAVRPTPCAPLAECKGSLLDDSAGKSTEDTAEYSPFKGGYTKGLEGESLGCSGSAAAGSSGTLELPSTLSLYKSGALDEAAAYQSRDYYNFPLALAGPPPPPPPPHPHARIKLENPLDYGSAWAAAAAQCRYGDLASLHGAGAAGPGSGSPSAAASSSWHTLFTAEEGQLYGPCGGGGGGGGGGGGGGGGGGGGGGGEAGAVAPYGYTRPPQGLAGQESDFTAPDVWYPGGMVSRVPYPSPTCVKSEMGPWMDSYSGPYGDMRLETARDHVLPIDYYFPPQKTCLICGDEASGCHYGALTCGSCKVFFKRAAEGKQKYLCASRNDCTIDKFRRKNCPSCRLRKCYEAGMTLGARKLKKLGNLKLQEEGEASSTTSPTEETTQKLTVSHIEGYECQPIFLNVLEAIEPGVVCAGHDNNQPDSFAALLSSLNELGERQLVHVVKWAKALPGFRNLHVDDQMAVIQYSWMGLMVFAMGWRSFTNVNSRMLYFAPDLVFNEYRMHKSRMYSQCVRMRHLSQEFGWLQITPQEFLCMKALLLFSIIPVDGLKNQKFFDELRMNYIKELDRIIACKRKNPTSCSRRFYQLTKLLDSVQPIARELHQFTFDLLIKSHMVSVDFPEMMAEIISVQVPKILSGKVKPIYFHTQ

[22] = Ratio of AUClast in Sprague-Dawley rat hypothalamus to serum at 10 mg/kg, po administered as single dose by LC-MS/MS analysis; assay type: ADME, organism-based; conditions: read-out: Ratio AUC
[23] = AUClast in Sprague-Dawley rat hypothalamus at 10 mg/kg, po administered as single dose by LC-MS/MS analysis; assay type: ADME, organism-based; conditions: in vivo
Rattus norvegicus [24] = test: Toxicity in benign prostatic hyperplasia Sprague-Dawley rat model assessed as effect on epididymis weight at 10 mg/kg, po qd co-administered with citral for 21 days starting post 8 days of citral alone treatment; assay type: organism-based; conditions: in vivo
Rattus norvegicus [25] = test: Toxicity in benign prostatic hyperplasia Sprague-Dawley rat model assessed as effect on seminal vesicle weight at 10 mg/kg, po qd co-administered with citral for 21 days starting post 8 days of citral alone treatment; assay type: organism-based; conditions: in vivo
[26] = Apparent clearance in Sprague-Dawley rat prostate at 10 mg/kg, po administered as single dose by LC-MS/MS analysis; assay type: ADME, organism-based, Prostate gland; conditions: in vivo
Rattus norvegicus [27] = test: Anti-androgenic activity in citral-induced benign prostatic hyperplasia Sprague-Dawley rat model assessed as reduction in tissue differentiation into stroma at 10 mg/kg, po qd co-administered with citral for 21 days starting post 8 days of citral alone treatment by hematoxyline and eosin staining based light microscopic analysis; assay type: functional, organism-based
[28] = biological target: T2, Androgen receptor (Homo sapiens); test: Antagonist activity at androgen receptor in human LNCAP cells assessed as decrease in testosterone-induced PSA expression levels at 10 uM after 24 hrs by Western blot analysis; assay type: cell-based
[29] = Tmax in Sprague-Dawley rat hypothalamus at 10 mg/kg, po administered as single dose by LC-MS/MS analysis; assay type: ADME, organism-based

SMILES: O=C(CN1CCN(c2ccc([N+](=O)[O-])cc2)CC1)N1CCN(c2ccc([N+](=O)[O-])cc2)CC1
- Kp [1]: 1.5
- Tmax [2]: 10 h
- Vd/F [3]: 4.2 L/kg
- Vd/F [4]: 2311.9 g/kg
- Cmax [5]: 2400 ng/g
- AUClast [6]: 37.3 µg·h/g
- EC50 (PC-3): > 80 µM
- Activity (Rattus norvegicus [7]): Active
- fold change (FC) [8]: 1.6
- AUC(0-t) [9]: 24100 ng·h/mL
- EC50 (DU-145): > 80 µM
- Tmax [10]: 10 h
- Cmax [11]: 1200 ng/g
- CL/F [12]: 383.2 g/h/kg
- Activity (Rattus norvegicus [13]): Non-Toxic
- CL/F [14]: 6.67 mL/min/kg
- Cmax [15]: 1100 ng/mL
- Activity (Rattus norvegicus [16]): Active
- EC50 (LNCaP [17]): 11.2 µM
- Vd/F [18]: 3313.7 g/kg
- EC50 (LNCaP [19]): 11.2 µM
- Activity (Rattus norvegicus [20]): 46.2%
- Activity [21]: Active
- Kp [22]: 1.1
- AUClast [23]: 26.1 µg·h/g
- Activity (Rattus norvegicus [24]): Non-Toxic
- Activity (Rattus norvegicus [25]): Non-Toxic
- CL/F [26]: 268.2 g/h/kg
- Activity (Rattus norvegicus [27]): Active
- Activity [28]: Active
- Tmax [29]: 10 h
